≈ marks a conversion by molar mass, not a printed value. Like-named read-outs stand apart in the source and are kept apart here.
Columns and labels:
Orf11* = biological target: T1, Orf11* (Actinoplanes teichomyceticus, UniProt Q70AY4); assay: isothermal titration calorimetry (ITC) of acyl-CoA ligands versus Orf11* (FIG. 9); assay type: binding
T1 sequence (Q70AY4 1-323): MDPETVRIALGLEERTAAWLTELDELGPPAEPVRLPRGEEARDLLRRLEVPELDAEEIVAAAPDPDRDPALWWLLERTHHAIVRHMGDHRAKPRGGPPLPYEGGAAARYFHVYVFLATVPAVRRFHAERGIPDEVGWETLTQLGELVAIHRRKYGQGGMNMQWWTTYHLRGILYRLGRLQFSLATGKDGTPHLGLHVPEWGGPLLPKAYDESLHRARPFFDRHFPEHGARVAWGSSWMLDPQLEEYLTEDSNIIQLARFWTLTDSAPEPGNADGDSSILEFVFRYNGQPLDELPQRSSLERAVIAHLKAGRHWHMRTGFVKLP
Method: (§1) ITC thermograms of Orf11* versus CoA, acetyl-CoA, butyryl-CoA, hexanoyl-CoA, octanoyl-CoA, decanoyl-CoA, lauroyl-CoA, myristoyl-CoA, palmitoyl-CoA, stearoyl-CoA or Tei-pseudoaglycone. Each exothermic heat pulse corresponds to an injection of 2 μl of ligands (1 mM˜5 mM) into a protein solution (0.1 mM); integrated heat areas constitute a differential binding curve that was fitted with a standard single-site binding model (Origin 7.0, MicroCal iTC200).
The orf11* and dbv8 genes were amplified and subcloned into the expression vector pET28a(+). The clones were transformed into E. coli BL21(DE3) for protein over-expression. A typical procedure is described as follows: One liter of LB medium containing 50 mg/L kanamycin was inoculated with 10 mL of an overnight culture grown in LB medium (containing 50 mg/L kanamycin), induced with 1 mL 1.0M IPTG (to give 1.0 mM; exact concentrations varied between proteins) at an OD600 of 0.7, and grown for a further 8 hours at 16° C. Cells were harvested by centrifugation at 6000 rpm for 20 min at 4° C., resuspended in 30 mL binding buffer (50 mM Tris at pH 8.0, 500 mM NaCl, 10 mM imidazole, 10% glycerol) and disrupted by microfluidizer. The cell lysate was centrifuged at 18000 rpm for 30 minutes to remove cell debris. The supernatant was applied to a Ni^2+-NTA agarose resin column (2 mL, Novagen) pre-equilibrated with binding buffer. The column was washed sequentially with 20 mL of binding buffer and 10 mL washing buffer (50 mM Tris at pH 8.0, 500 mM NaCl, 50 mM imidazole, 10% glycerol). The bound protein then was eluted with 10 mL of elution buffer (50 mM Tris at pH 8.0, 500 mM NaCl, 250 mM imidazole, 10% glycerol). Gel filtration was performed using an Äkta FPLC system equipped with an S-200 Superdex column (Amersham Bioscience) under isocratic conditions (50 mM Tris at pH 8.0, 500 mM NaCl). The buffer was exchanged using Millipore centrifugal filters and HEPES buffer (50 mM, pH 8.0). Protein purity was determined by SDS-PAGE and Western blotting, and electrospray mass spectrometry (ESI-MS). Protein concentrations were estimated using the Bradford assay.
(§2) Protein expression, purification and confirmation of purity were performed according to standard protocols. Acyl-CoA analogs were chemically synthesized as described previously (Huang, Y. T. et al. In vitro characterization of enzymes involved in the synthesis of nonproteinogenic residue (2S,3S)-beta-methylphenylalanine in glycopeptide antibiotic mannopeptimycin. Chembiochem 10, 2480-2487, doi:10.1002/cbic.200900351 (2009); Li, T. L., Spiteller, D. & Spencer, J. B. Identification of a pentaketide stilbene produced by a type III polyketide synthase from Pinus sylvestris and characterisation of free coenzyme A intermediates. Chembiochem 10, 896-901, doi:10.1002/cbic.200800840 (2009)). Single-wavelength anomalous dispersion (SAD) and molecular replacement (MR) methods were used to solve structures of native and complex Orf11*/Dbv8. Mutants were made by using QuickChange®. Biochemical analyses for wild type protein and mutants were performed using LC-MS. Oligomerization states of the proteins in solution were determined by gel filtration chromatography and analytical ultracentrifugation (AUC). Substrate-enzyme affinity was determined using isothermal titration calorimetry (ITC). Biological assays were performed according standard protocols.
The GNAT domain in Orf11*/Dbv8 differs from the canonical GNAT fold as it lacks the first β strand, and the C-terminus extends with four additional helices (α10-α13). β-Strands β3 and β4 splay apart at C-termini, where Pro198 replaces a typical β-bulge. In a decanoyl-CoA-complexed binary structure (FIG. 2c), the decanoyl-CoA bends in an ‘S’ shape edging in the splayed fingers β3 and β4 (FIG. 8). […]

ATCC 51559 = assay: MIC by broth microdilution (NCCLS); assay type: cell-based, E. faecalis
Method: (§3) The MIC values were determined by the broth microdilution method, as recommended by the National Committee for Clinical Laboratory Standards (NCCLS). Briefly, overnight cultures of tested bacteria were suspended to a turbidity of 0.1 OD units (1˜5×10^8 CFU/ml). Microtiter plates containing serial dilutions of each antimicrobial agent (0, 1, 2, 4, 8, 16, 32, 64, and 128 μg/ml) were inoculated with each organism to yield the appropriate density (1˜5×10^5 CFU/ml) in a 200 μL final volume. The plates were incubated for 18˜22 h at 37° C.
(§4) MICs were determined as concentrations at which no growth was observed against the strain tested. Experiments were performed in double duplicate. ATCC 29302/ATCC 33186: a standard strain; ATCC 51299: a low-level vancomycin-resistant (VanB type); ATCC 51559: a multidrug-resistant strain (ampicillin, ciprofloxacin, gentamicin, rifampin, teicoplanin and vancomycin, VanA type VRE); ATCC 700221: a strain resistant to vancomycin, VanA type VRE. ATCC 700802 is a strain resistant to gentamicins and vancomycin.

ATCC 51299 = assay: MIC by broth microdilution (NCCLS); assay type: cell-based
Method: as §3, §4

ATCC 33186 = assay: MIC by broth microdilution (NCCLS); assay type: cell-based
Method: as §3, §4

ATCC 700802 = assay: MIC by broth microdilution (NCCLS); assay type: cell-based
Method: as §3, §4

ATCC 29302 = assay: MIC by broth microdilution (NCCLS); assay type: cell-based
Method: as §3, §4

ATCC 700221 = assay: MIC by broth microdilution (NCCLS); assay type: cell-based
Method: as §3, §4

E. faecalis (ATCC 51559) = assay: Mouse infection treatment study, ED50 (rescue of 50% infected mice); assay type: in vivo
Method: The preliminary ED50 (potency) of the 2-decanoyl,6-octanoyl teicoplanin analog was determined as follows. 6-8 weeks BALB/c female mice were purchased from the National Laboratory Animal Breeding and Research Center, Taipei, Taiwan. Mice with average body weight of 25 to 30 g were subjected to infection via intraperitoneal (i.p.) injection with 1×10^10 cfu/mouse of E. faecalis (ATCC 51559) at day 0. For the treatment study, mice were randomly assigned into five groups at the start of the experiment and administered different amount of either vancomycin, teicoplanin, 2-C10-6-C8-Teicoplanin, or saline (as a blank control) by i.v. twice a day for two days (from day 1 to day 2, a total of 4 doses). The ED50 was determine by the concentration of compounds sufficient to rescue 50% infected mice.

Orf11*/Dbv8 = assay: Isothermal titration calorimetry (ITC) analysis of substrate-enzyme affinity; assay type: binding; conditions: ligand injected into protein solution (0.1 mM)
Method: as §1, §2

[1] = ITC, injections of 2 μl of ligand (1 mM˜5 mM) into protein solution (0.1 mM), single-site binding model (Origin 7.0, MicroCal iTC200), Orf11* expressed from pET28a(+) in E. coli BL21(DE3), no mutation stated, read-out: dissociation constant (Kd)
[2] = standard strain, 18~22 h at 37° C.

Compound: CCCCCCCCCCCC(=O)SCCNC(=O)CCNC(=O)[C@H](O)C(C)(C)COP(=O)(O)OP(=O)(O)OC[C@H]1O[C@@H](n2cnc3c(N)ncnc32)[C@H](O)[C@@H]1OP(=O)(O)O [lauroyl-CoA]
- Kd (Orf11*; [1]): 4.1 ± 0.8 µM

Compound: CN[C@H](CC(C)C)C(=O)N[C@H]1C(=O)N[C@@H](CC(N)=O)C(=O)N[C@H]2C(=O)N[C@H]3C(=O)N[C@H](C(=O)N[C@H](C(=O)O)c4cc(O)cc(O)c4-c4cc3ccc4O)[C@H](O)c3ccc(c(Cl)c3)Oc3cc2cc(c3O[C@@H]2O[C@H](CO)[C@@H](O)[C@H](O)[C@H]2O[C@H]2C[C@](C)(N)[C@H](O)[C@H](C)O2)Oc2ccc(cc2Cl)[C@H]1O [Vancomycin, vancomycin]
- MIC (ATCC 51559; Enterococcus, ATCC 51559 / VRE, 22 h, read-out: MIC ATCC 51559): 1020 µg/mL (≈ 707 µM)
- MIC (ATCC 51299; 22 h, read-out: MIC ATCC 51299): > 64 µg/mL
- MIC (ATCC 33186; 22 h, read-out: MIC ATCC 33186): 4 µg/mL (≈ 2.76 µM)
- MIC (ATCC 700802; 22 h, read-out: MIC ATCC 700802): 64 µg/mL (≈ 44.2 µM)
- MIC (ATCC 29302; 22 h, read-out: MIC ATCC 29302): 1 µg/mL (≈ 0.69 µM)
- MIC (ATCC 700221; Enterococcus, ATCC 700221 / VRE, 22 h, read-out: MIC ATCC 700221): > 128 µg/mL
- ED50 (E. faecalis (ATCC 51559); Enterococcus faecalis, ATCC51559, 48 h, read-out: ED50 against ATCC 51559): > 128 mg/kg

Compound: CC(C)(COP(=O)(O)OP(=O)(O)OC[C@H]1O[C@@H](n2cnc3c(N)ncnc32)[C@H](O)[C@@H]1OP(=O)(O)O)[C@@H](O)C(=O)NCCC(=O)NCCS [CoA 5, coenzyme A]
- binding to the enzyme (ITC) (Orf11*/Dbv8): barely binds

Compound: CCCCCC(=O)SCCNC(=O)CCNC(=O)[C@H](O)C(C)(C)COP(=O)(O)OP(=O)(O)OC[C@H]1O[C@@H](n2cnc3c(N)ncnc32)[C@H](O)[C@@H]1OP(=O)(O)O [hexanoyl-CoA]
- Kd (Orf11*; [1]): 85.6 ± 9 µM

Compound: CC(C(=O)O)C(=O)SCCNC(=O)CCNC(=O)[C@H](O)C(C)(C)COP(=O)(O)OP(=O)(O)OC[C@H]1O[C@@H](n2cnc3c(N)ncnc32)[C@H](O)[C@@H]1OP(=O)(O)O (stereo partly drawn) [methylmalonyl-CoA]
- binding to the enzyme (ITC) (Orf11*/Dbv8): does not bind

Compound: CCCCCCCCCC(=O)SCCNC(=O)CCNC(=O)[C@H](O)C(C)(C)COP(=O)(O)OP(=O)(O)OC[C@H]1O[C@@H](n2cnc3c(N)ncnc32)[C@H](O)[C@@H]1OP(=O)(O)O [decanoyl-CoA]
- Kd (Orf11*; [1]): 1 ± 0.1 µM

Compound: CC(C)(COP(=O)(O)OP(=O)(O)OC[C@H]1O[C@@H](n2cnc3c(N)ncnc32)[C@H](O)[C@@H]1OP(=O)(O)O)[C@@H](O)C(=O)NCCC(=O)NCCSC(=O)CC(=O)O [malonyl-CoA]
- binding to the enzyme (ITC) (Orf11*/Dbv8): does not bind

Compound: CC(C)(COP(=O)(O)OP(=O)(O)OC[C@H]1O[C@@H](n2cnc3c(N)ncnc32)[C@H](O)[C@@H]1OP(=O)(O)O)[C@@H](O)C(=O)NCCC(=O)NCCSC(=O)c1ccccc1 [benzoyl-CoA]
- binding to the enzyme (ITC) (Orf11*/Dbv8): does not bind

Compound: CCCCCCCCCCCCCCCC(=O)SCCNC(=O)CCNC(=O)[C@H](O)C(C)(C)COP(=O)(O)OP(=O)(O)OC[C@H]1O[C@@H](n2cnc3c(N)ncnc32)[C@H](O)[C@@H]1OP(=O)(O)O [palmitoyl-CoA]
- Kd (Orf11*; [1]): 0.4 ± 0.08 µM

Compound: CCCCCCCCCCCCCCCCCC(=O)SCCNC(=O)CCNC(=O)[C@H](O)C(C)(C)COP(=O)(O)OP(=O)(O)OC[C@H]1O[C@@H](n2cnc3c(N)ncnc32)[C@H](O)[C@@H]1OP(=O)(O)O [stearoyl-CoA]
- Kd (Orf11*; [1]): 4.3 ± 0.8 µM

Compound: CCCC(=O)SCCNC(=O)CCNC(=O)[C@H](O)C(C)(C)COP(=O)(O)OP(=O)(O)OC[C@H]1O[C@@H](n2cnc3c(N)ncnc32)[C@H](O)[C@@H]1OP(=O)(O)O [butyryl-CoA]
- Kd (Orf11*): 111 ± 23 µM

Compound: Teicoplanin
- MIC ATCC 51559 (ATCC 51559; multidrug-resistant strain, VanA type VRE, 18~22 h at 37° C.): 256 µg/mL
- MIC ATCC 51299 (ATCC 51299; low-level vancomycin-resistant (VanB type), 18~22 h at 37° C.): 0.5 µg/mL
- MIC ATCC 33186 (ATCC 33186; [2]): 0.25 µg/mL
- MIC ATCC 700802 (ATCC 700802; resistant to gentamicins and vancomycin, 18~22 h at 37° C.): 0.5 µg/mL
- MIC ATCC 29302 (ATCC 29302; [2]): 0.25 µg/mL
- MIC ATCC 700221 (ATCC 700221; resistant to vancomycin, VanA type VRE, 18~22 h at 37° C.): >128 µg/mL
- ED50 against ATCC 51559 (E. faecalis (ATCC 51559); BALB/c female mice infected i.p. with 1×10^10 cfu/mouse, i.v. twice a day for two days (4 doses), amount rescuing 50% infected mice, preliminary): >128 mg/kg

Compound: Tei pseudoaglycone [Tei pseudoaglycone 3]
- binding to the enzyme (ITC) (Orf11*/Dbv8): barely binds

Compound: CCCCCCCCCCCCCC(=O)SCCNC(=O)CCNC(=O)[C@H](O)C(C)(C)COP(=O)(O)OP(=O)(O)OC[C@H]1O[C@@H](n2cnc3c(N)ncnc32)[C@H](O)[C@@H]1OP(=O)(O)O [myristoyl-CoA]
- Kd (Orf11*): 5.9 ± 1.2 µM

Compound: CCCCCCCC(=O)SCCNC(=O)CCNC(=O)[C@H](O)C(C)(C)COP(=O)(O)OP(=O)(O)OC[C@H]1O[C@@H](n2cnc3c(N)ncnc32)[C@H](O)[C@@H]1OP(=O)(O)O [octanoyl-CoA]
- Kd (Orf11*; [1]): 1 ± 0.1 µM

From patent publication US10316064B2, “Teicoplanin analogs and uses thereof” (Academia Sinica, priority 2014, dated 2019)
